Test results reported in patent US20230416329A1, “A PEPTIDE WITH DISULFIDE BONDS AND INHIBITORY ACTIVITY AGAINST SERINE PROTEASES, DERIVED HYBRID PEPTIDES THEREOF, AND USES THEREOF” (INSTITUTE OF MATERIA MEDICA , CHINESE ACADEMY OF MEDICAL …, priority 2020, published 2023).
≈ marks a conversion by molar mass, not a printed value. Bridge positions count the residues as written; N and C are the ends. Ends that are not written are not given here. Peptide text beside a SMILES is read from it.

What was measured:
trypsin = molecular target: T1, trypsin (Bos taurus, UniProt P00760); assay: in vitro
T1 sequence (P00760 24-246): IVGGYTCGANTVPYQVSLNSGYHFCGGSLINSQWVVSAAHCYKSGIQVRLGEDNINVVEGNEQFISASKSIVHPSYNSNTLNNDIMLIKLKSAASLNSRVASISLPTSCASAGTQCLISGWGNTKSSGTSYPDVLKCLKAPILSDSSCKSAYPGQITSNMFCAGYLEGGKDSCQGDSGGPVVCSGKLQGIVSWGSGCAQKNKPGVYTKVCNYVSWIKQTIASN
Outline: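 Remaining RP-HPLC peak area tracks undigested peptide over time. Samples were quenched with 10% TFA at time points between 1.5 and 60 min during 37 °C digestion. Trypsin was added from a 0.05 μg/μL solution after 5 min of thermal equilibration.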

[1] = molecular target: T2, interaction of PCSK9-LDLR (Homo sapiens, UniProt Q8NBP7); assay: PCSK9-LDLR in vitro binding assay (inhibitory rate); conditions: for inhibition at 50 µM: sample 50 μM, PCSK9 75 ng/mL; for inhibitory activity on the interaction between PCSK9 and LDLR (in words): in vitro
T2 construct: purchased MBL Company, Beijing, China CY-8150
Procedure: Polypeptide PCSK9_1-14 (SEQ ID NOs: 210-223) is dissolved in pure water or DMSO. 85 μL reaction buffer, 5 μL 1 mM polypeptide sample and 10 μL 750 ng/mL PCSK9 protein was pre-incubated at room temperature for 20 minutes before being added to a 96 well plate. The OD450/540 nm value was measured according to the instructions of the PCSK9-LDLR in Vitro Binding Assay Kit (CY-8150, MBL Company, Beijing, China). Solvent control: replace polypeptide with 5 μL solvent. In 100 μL reaction system, the final concentration of the polypeptide and PCSK9 is 50 μM and 75 ng/mL, respectively.
Inhibition rate of polypeptide (%)=(OD450/540 nm(solvent control)−OD450/540 nm (sample))/OD450/540 nm(solvent control)×100

[2] = system: P407-induced hyperlipidemia mice; assay: Subcutaneous injection of PCSK9 inhibitory peptide, serum total cholesterol in P407-induced hyperlipidemia mice; assay type: in vivo, mouse; conditions: for serum total cholesterol (TC) level after subcutaneous injection (in words): 2 μmol/kg single s.c., P407-induced hyperlipidemia mice; for TC 30 min: 30 min after administration; for TC 60 min: 60 min after administration; for TC 90 min: 90 min after administration; for TC 15 min: 15 min after administration
Procedure: The experimental peptide sample was prepared using PEG400 with a final concentration of […], and the final concentration of PEG400 is 20% (w/v). Normal ICR mice were fasted overnight with water ad libitum. The next day, all of the mice were randomly divided into model control group (Con) and polypeptide administration group (2 μmol/kg) according to body weight. Then, all of the mice were intraperitoneally injected with P407 (500 mg/kg) and fed with feed 2 hours later. Six mice were taken as a normal control group (Nor). After 24 hours, the mice in Con were subcutaneously injected with saline containing 20% PEG400, and the mice in the treatment group were given peptides. Then, the blood was taken at different time points after administration to determine the serum total cholesterol (TC) level. In consideration of the complexity of factors affecting serum LDL-C levels, especially the differences between single and long-term administration, the in vivo activity of PCSK9 inhibitory peptide is mainly observed for changes in serum TC levels.

chymotrypsin = chymotrypsin (Bos taurus, UniProt P00766); assay: in vitro; conditions: for remaining at 0.025 h, 60 μM / remaining at 0.05 h, 60 μM / remaining at 0.075 h, 60 μM / remaining at 0.1 h, 60 μM / remaining at 0.15 h, 60 μM / remaining at 0.25 h, 60 μM / remaining at 0.5 h, 60 μM / remaining at 1 h, 60 μM: isolated enzyme chymotrypsin, pH 7.8, Residual peak area (%)/chymotrypsin
Outline: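 RP-HPLC peak area tracked intact peptide after 37 °C digestion with chymotrypsin (0.05 μg/μL solution, 5 min preincubation). Samples were withdrawn at 1.5-60.0 min and stopped with 10% TFA.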

elastase = elastase (Sus scrofa, UniProt P00772); assay: in vitro; conditions: for remaining at 0.025 h, 60 μM / remaining at 0.05 h, 60 μM / remaining at 0.075 h, 60 μM / remaining at 0.1 h, 60 μM / remaining at 0.15 h, 60 μM / remaining at 0.25 h, 60 μM / remaining at 0.5 h, 60 μM / remaining at 1 h, 60 μM: isolated enzyme elastase, pH 8, Residual peak area (%)/elastase
Chain of elastase (P00772 27-266): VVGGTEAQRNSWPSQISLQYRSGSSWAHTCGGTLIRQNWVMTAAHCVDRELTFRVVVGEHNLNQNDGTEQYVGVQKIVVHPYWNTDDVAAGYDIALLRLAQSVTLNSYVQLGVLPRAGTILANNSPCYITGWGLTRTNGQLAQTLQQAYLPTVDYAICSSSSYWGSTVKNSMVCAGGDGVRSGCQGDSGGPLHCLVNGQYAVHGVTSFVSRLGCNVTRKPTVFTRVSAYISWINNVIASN
Procedure: FIG. 19. […] At different time point, 25 μL aliquots was taken out, and 10% (v/v) TFA was added to terminate the reaction.
Mix by centrifugation at 8000 rpm for 30 seconds.
Arrange a certain volume of 0.5 μg/μL elastase solution in another sterile EP. Incubate the EP tubes containing peptides and enzymes at 37° C. for 5 min, and then add 4.5 μL of elastase solution to each EP tube containing peptides and mix well. Start timing and remove 25 μL of reaction solution at 1.5, 3.0, 4.5, 6.0, 9.0, 15.0, 30.0, and 60.0 min later, respectively. Add 3.75 μL of 10% TFA to terminate the reaction and mix well by centrifugation at 8000 rpm for 30 seconds.
Referring to the experimental method in Example 5, in vitro stability of salmon Calcitonin analogs with oral administration activity to the enzymatic hydrolysis by trypsin, chymotrypsin and elastase were performed.
Referring to the experimental method in Example 5, in vitro stability of IL-17A inhibitory peptides towards the enzymatic hydrolysis by trypsin, chymotrypsin and elastase were performed.

[3] = serum, subcutaneous 2 μmol/kg, mean ± sd

| Molecule | inhibition at 50 µM [1] [%] | serum total cholesterol (TC) level after subcutaneous injection (in words) [2] | TC 30 min [2, 3] [mg/dL] | TC 60 min [2, 3] [mg/dL] | TC 90 min [2, 3] [mg/dL] | Residual peak area (%)/chymotrypsin (chymotrypsin) [%] | stability towards chymotrypsin hydrolysis (in words) (chymotrypsin) | remaining at 0.025 h, 60 μM (chymotrypsin) [%] | remaining at 0.05 h, 60 μM (chymotrypsin) [%] | remaining at 0.075 h, 60 μM (chymotrypsin) [%] | remaining at 0.1 h, 60 μM (chymotrypsin) [%] | remaining at 0.15 h, 60 μM (chymotrypsin) [%] | remaining at 0.25 h, 60 μM (chymotrypsin) [%] | remaining at 0.5 h, 60 μM (chymotrypsin) [%] | remaining at 1 h, 60 μM (chymotrypsin) [%] | Residual peak area (%)/elastase (elastase) [%] | stability towards elastase hydrolysis (in words) (elastase) | remaining at 0.025 h, 60 μM (elastase) [%] | inhibitory activity on the interaction between PCSK9 and LDLR (in words) [1] | TC 15 min [2, 3] [mg/dL] | other results |
| --- | --- | --- | --- | --- | --- | --- | --- | --- | --- | --- | --- | --- | --- | --- | --- | --- | --- | --- | --- | --- | --- |
| CC(C)C[C@H](NC(=O)[C@H](Cc1ccc(O)cc1)NC(=O)[C@H](CCC(=O)O)NC(=O)[C@H](CCC(=O)O)NC(=O)[C@H](Cc1c[nH]c2ccccc12)NC(=O)[C@H](CO)NC(=O)[C@@H](NC(=O)[C@H](Cc1ccccc1)NC(=O)[C@@H](NC(=O)[C@@H](N)[C@@H](C)O)C(C)C)[C@@H](C)O)C(=O)N[C@@H](CC(=O)O)C(=O)N[C@@H](Cc1c[nH]c2ccccc12)C(=O)N[C@H](C(=O)O)C(C)C [PCSK9_1, reference compound] | 26 ± 10 | little effect on lowering total cholesterol | 392.5 ± 133.0 (≈ 2340 µM) | 335.0 ± 111.7 (≈ 2000 µM) | 383.2 ± 125.9 (≈ 2290 µM) | 100.0 ± 0.0 | easily degraded by chymotrypsin and elastase | 82.3 ± 5 | 80.7 ± 3.3 | 80.1 ± 2 | 79.1 ± 5.6 | 75.5 ± 1.6 | 71.2 ± 2.4 | 62.7 ± 2.6 | 47.7 ± 2 | 100.0 ± 0.0 | easily degraded by chymotrypsin and elastase | 95.4 ± 0.9 |  |  | stability towards trypsin hydrolysis (in words) (trypsin): stable towards trypsin; TC 120 min ([2]; serum, subcutaneous 2 μmol/kg, 120 min after administration, mean ± sd): 370.4 ± 122.3 mg/dL; remaining at 0.05 h, 60 μM (elastase): 90.6 ± 2.4%; remaining at 0.075 h, 60 μM (elastase): 83.3 ± 1.8%; remaining at 0.1 h, 60 μM (elastase): 85.5 ± 2.7%; remaining at 0.15 h, 60 μM (elastase): 79.6 ± 0.8%; remaining at 0.25 h, 60 μM (elastase): 66.8 ± 0.8%; remaining at 0.5 h, 60 μM (elastase): 52.9 ± 1.5%; remaining at 1 h, 60 μM (elastase): 28.9 ± 0.7% |
| CC[C@H](C)[C@@H]1NC(=O)[C@@H]2CCCN2C(=O)[C@@H]2CCCN2C(=O)[C@H]([C@@H](C)CC)NC(=O)[C@H](CO)NC(=O)[C@H](CCCCN)NC(=O)[C@H]([C@@H](C)O)NC(=O)[C@H](C)NC(=O)[C@H](CCCNC(=N)N)NC(=O)CNC(=O)[C@@H](NC(=O)[C@@H](NC(=O)[C@H](Cc2ccc(O)cc2)NC(=O)[C@H](CC(=O)O)NC(=O)[C@H](CC(C)C)NC(=O)[C@H](Cc2ccc(O)cc2)NC(=O)[C@H](CCC(=O)O)NC(=O)[C@H](CCC(=O)O)NC(=O)[C@@H](N)Cc2c[nH]c3ccccc23)C(C)C)CSSC[C@@H](C(=O)N[C@@H](Cc2ccccc2)C(=O)NCC(=O)N[C@H](C(=O)N[C@H](C(=O)N[C@@H](Cc2ccccc2)C(=O)N[C@H](C(=O)N[C@@H](CO)C(=O)O)[C@@H](C)O)C(C)C)[C@@H](C)O)NC1=O [PCSK9_6] (H-WEEYLDYVCGRATKSIPPICFGTVFTS-OH; disulfide 9-20) | 87 ± 1.1 |  |  |  |  | 100.0 ± 0.0 | certain inhibitory effects on the other two proteases chymotrypsin and elastase | 59.9 ± 8.2 | 47.1 ± 8 | 33.6 ± 3 | 33.9 ± 3.2 | 25.9 ± 3.3 | 14.5 ± 0.8 | 2.2 ± 0.1 | 1 ± 0.9 | 100.0 ± 0.0 | certain inhibitory effects on the other two proteases chymotrypsin and elastase | 62.9 ± 4.8 |  |  | remaining at 0.05 h, 60 μM (elastase): 59.3 ± 10.9%; remaining at 0.075 h, 60 μM (elastase): 56.4 ± 5.3%; remaining at 0.1 h, 60 μM (elastase): 55.3 ± 6.8%; remaining at 0.15 h, 60 μM (elastase): 67.8 ± 9.3%; remaining at 0.25 h, 60 μM (elastase): 48.9 ± 9.4%; remaining at 0.5 h, 60 μM (elastase): 39.6 ± 1.2%; remaining at 1 h, 60 μM (elastase): 48.3 ± 9.4% |
| Trp-Glu-Glu-Ala-Leu-Asp-Trp-Val-Cys-Gly-Arg-Ala-Thr-Lys-Ser-Ile-Pro-Pro-Ile-Cys-Phe-Gly-Thr-Val-Phe-Thr-Ser (WEEALDWVCGRATKSIPPICFGTVFTS; disulfide 9-20 (inferred)) [PCSK9_5] |  | reduced serum TC level | 323.6 ± 54.2 | 308.9 ± 52.3 | 298.0 ± 59.1 |  |  |  |  |  |  |  |  |  |  |  |  |  | good inhibitory activity on the interaction between PCSK9 and LDLR | 305.0 ± 52.4 | inhibitory activity on the interaction between PCSK9 and LDLR (in words) ([1]; listed as SEQ ID NO: 214): good inhibitory effects in vitro; serum total cholesterol (TC) level after subcutaneous injection (in words) ([2]; listed as SEQ ID NO: 214): excellent lowering lipid (total cholesterol) activities in vivo |
| Trp-Glu-Glu-Ala-Leu-Asp-Trp-Val-Gly-Ile-Cys-Thr-Ala-Ser-Ile-Pro-Pro-Ile-Cys-Gln-Gly-Thr-Val-Phe-Thr-Ser (WEEALDWVGICTASIPPICQGTVFTS; disulfide 11-19 (inferred)) [PCSK9_5EC] |  | reduced serum TC level | 223.1 ± 79.5 | 257.7 ± 46.6 | 253.2 ± 42.5 |  |  |  |  |  |  |  |  |  |  |  |  |  | good inhibitory activity on the interaction between PCSK9 and LDLR | 266.9 ± 52.0 | inhibitory activity on the interaction between PCSK9 and LDLR (in words) ([1]; listed as SEQ ID NO: 229): good inhibitory effects in vitro; serum total cholesterol (TC) level after subcutaneous injection (in words) ([2]; listed as SEQ ID NO: 229): excellent lowering lipid (total cholesterol) activities in vivo |
| Trp-Glu-Glu-Ala-Leu-Asp-Trp-Val-Gly-Phe-Cys-Thr-Tyr-Ser-Ile-Pro-Pro-Gln-Cys-Tyr-Gly-Thr-Val-Phe-Thr-Ser (WEEALDWVGFCTYSIPPQCYGTVFTS; disulfide 11-19 (inferred)) [PCSK9_5CH] |  |  | 306.7 ± 68.5 | 302.3 ± 103.5 | 270.5 ± 74.1 |  |  |  |  |  |  |  |  |  |  |  |  |  | good inhibitory activity on the interaction between PCSK9 and LDLR | 300.2 ± 71.6 | inhibitory activity on the interaction between PCSK9 and LDLR (in words) ([1]; listed as SEQ ID NO: 228): good inhibitory effects in vitro |
